Assay results: PubChem BioAssay (NCI)
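Cells were grown in 96-well plates and exposed to each compound for 48 hours at five concentrations; endpoints were interpolated linearly between bracketing concentrations, or set to the highest concentration if not reached. The concentration for 50% growth inhibition is given as GI50. Definition used: TGI = concentration required for complete inhibition of growth.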

Legend:
Assay in all cases: NCI anticancer screen, dose series, 48 h
RXF 393 renal = test system: RXF 393 renal
UACC-62 melanoma = test system: UACC-62 melanoma
MDA-MB-231 breast = test system: MDA-MB-231 breast
UACC-257 melanoma = test system: UACC-257 melanoma
HCC-2998 colon = test system: HCC-2998 colon
HOP-92 NSCLC = test system: HOP-92 NSCLC
LOX IMVI melanoma = test system: LOX IMVI melanoma
CCRF-CEM leukemia = test system: CCRF-CEM leukemia
OVCAR-3 ovarian = test system: OVCAR-3 ovarian
HOP-62 NSCLC = test system: HOP-62 NSCLC
MCF7 breast = test system: MCF7 breast
OVCAR-5 ovarian = test system: OVCAR-5 ovarian
KM12 colon = test system: KM12 colon
NCI-H226 lung = test system: NCI-H226 lung
SNB-75 CNS = test system: SNB-75 CNS
A549 NSCLC = test system: A549 NSCLC
BT-549 breast = test system: BT-549 breast
NCI-H23 lung = test system: NCI-H23 lung
SF-295 CNS = test system: SF-295 CNS
SN12C renal = test system: SN12C renal
U251 CNS = test system: U251 CNS
SR leukemia = test system: SR leukemia
RPMI-8226 leukemia = test system: RPMI-8226 leukemia
OVCAR-4 ovarian = test system: OVCAR-4 ovarian
PC-3 prostate = test system: PC-3 prostate
ACHN renal = test system: ACHN renal
HT29 colon = test system: HT29 colon
HCT-116 colon = test system: HCT-116 colon
OVCAR-8 ovarian = test system: OVCAR-8 ovarian
MOLT-4 leukemia = test system: MOLT-4 leukemia
SF-539 CNS = test system: SF-539 CNS
SK-OV-3 ovarian = test system: SK-OV-3 ovarian
SK-MEL-2 melanoma = test system: SK-MEL-2 melanoma
EKVX NSCLC = test system: EKVX NSCLC
786-0 renal = test system: 786-0 renal
SK-MEL-28 melanoma = test system: SK-MEL-28 melanoma
DU-145 prostate = test system: DU-145 prostate
T-47D breast = test system: T-47D breast
SW-620 colon = test system: SW-620 colon
SF-268 CNS = test system: SF-268 CNS
MDA-MB-435 = test system: MDA-MB-435
NCI-H522 lung = test system: NCI-H522 lung
HCT-15 colon = test system: HCT-15 colon
CAKI-1 renal = test system: CAKI-1 renal
A498 renal = test system: A498 renal
M14 melanoma = test system: M14 melanoma
SK-MEL-5 melanoma = test system: SK-MEL-5 melanoma
HS 578T breast = test system: HS 578T breast
SNB-19 CNS = test system: SNB-19 CNS
NCI-H460 lung = test system: NCI-H460 lung
NCI/ADR-RES ovarian = test system: NCI/ADR-RES ovarian
K-562 leukemia = test system: K-562 leukemia
HL-60(TB) leukemia = test system: HL-60(TB) leukemia
COLO 205 colon = test system: COLO 205 colon
TK-10 renal = test system: TK-10 renal

CN(C)CCC(=O)Nc1ccc(-n2cc(-c3cccc(NC(=S)Nc4cccc(-c5cn(-c6ccc(NC(=O)CCN(C)C)cc6)nn5)c4)c3)nn2)cc1
GI50 (RXF 393 renal): > 100 µM
TGI (RXF 393 renal): > 100 µM
GI50 (UACC-62 melanoma): 33.3 µM
TGI (UACC-62 melanoma): 98.8 µM
GI50 (MDA-MB-231 breast): 27.2 µM
TGI (MDA-MB-231 breast): 58.5 µM
GI50 (UACC-257 melanoma): 26.2 µM
TGI (UACC-257 melanoma): 67.4 µM
GI50 (HCC-2998 colon): > 100 µM
TGI (HCC-2998 colon): > 100 µM
GI50 (HOP-92 NSCLC): 19.5 µM
TGI (HOP-92 NSCLC): 53.9 µM
GI50 (LOX IMVI melanoma): 7.7 µM
TGI (LOX IMVI melanoma): > 100 µM
GI50 (CCRF-CEM leukemia): 21.4 µM
TGI (CCRF-CEM leukemia): 78.3 µM
GI50 (OVCAR-3 ovarian): 16.4 µM
TGI (OVCAR-3 ovarian): 53.4 µM
GI50 (HOP-62 NSCLC): 33.1 µM
TGI (HOP-62 NSCLC): > 100 µM
GI50 (MCF7 breast): 3.25 µM
TGI (MCF7 breast): 40.3 µM
GI50 (OVCAR-5 ovarian): 20.6 µM
TGI (OVCAR-5 ovarian): 52.8 µM
GI50 (KM12 colon): 10.7 µM
TGI (KM12 colon): 34 µM
GI50 (NCI-H226 lung): 35.3 µM
TGI (NCI-H226 lung): > 100 µM
GI50 (SNB-75 CNS): 25.6 µM
TGI (SNB-75 CNS): 65.6 µM
GI50 (A549 NSCLC): 27.8 µM
TGI (A549 NSCLC): > 100 µM
GI50 (BT-549 breast): 22.9 µM
TGI (BT-549 breast): 66.4 µM
GI50 (NCI-H23 lung): 57.2 µM
TGI (NCI-H23 lung): > 100 µM
GI50 (SF-295 CNS): 20.2 µM
TGI (SF-295 CNS): 49 µM
GI50 (SN12C renal): 61.5 µM
TGI (SN12C renal): > 100 µM
GI50 (U251 CNS): 21.4 µM
TGI (U251 CNS): 80.8 µM
GI50 (SR leukemia): 26.2 µM
TGI (SR leukemia): > 100 µM
GI50 (RPMI-8226 leukemia): 38.6 µM
TGI (RPMI-8226 leukemia): > 100 µM
GI50 (OVCAR-4 ovarian): 35.4 µM
TGI (OVCAR-4 ovarian): > 100 µM
GI50 (PC-3 prostate): 85.9 µM
TGI (PC-3 prostate): > 100 µM
GI50 (ACHN renal): > 100 µM
TGI (ACHN renal): > 100 µM
GI50 (HT29 colon): 6.03 µM
TGI (HT29 colon): > 100 µM
GI50 (HCT-116 colon): 12.7 µM
TGI (HCT-116 colon): 40.4 µM
GI50 (OVCAR-8 ovarian): 42.3 µM
TGI (OVCAR-8 ovarian): > 100 µM
GI50 (MOLT-4 leukemia): 20.7 µM
TGI (MOLT-4 leukemia): 84.6 µM
GI50 (SF-539 CNS): 28.1 µM
TGI (SF-539 CNS): 78.2 µM
GI50 (SK-OV-3 ovarian): > 100 µM
TGI (SK-OV-3 ovarian): > 100 µM
GI50 (SK-MEL-2 melanoma): 39.5 µM
TGI (SK-MEL-2 melanoma): > 100 µM
GI50 (EKVX NSCLC): 37.2 µM
TGI (EKVX NSCLC): > 100 µM
GI50 (786-0 renal): > 100 µM
TGI (786-0 renal): > 100 µM
GI50 (SK-MEL-28 melanoma): 24.5 µM
TGI (SK-MEL-28 melanoma): 53.4 µM
GI50 (DU-145 prostate): > 100 µM
TGI (DU-145 prostate): > 100 µM
GI50 (T-47D breast): 34.1 µM
TGI (T-47D breast): > 100 µM
GI50 (SW-620 colon): 4.26 µM
TGI (SW-620 colon): > 100 µM
GI50 (SF-268 CNS): 24.5 µM
TGI (SF-268 CNS): 75.6 µM
GI50 (MDA-MB-435): 26.7 µM
TGI (MDA-MB-435): > 100 µM
GI50 (NCI-H522 lung): 27.3 µM
TGI (NCI-H522 lung): > 100 µM
GI50 (HCT-15 colon): > 100 µM
TGI (HCT-15 colon): > 100 µM
GI50 (CAKI-1 renal): > 100 µM
TGI (CAKI-1 renal): > 100 µM
GI50 (A498 renal): > 100 µM
TGI (A498 renal): > 100 µM
GI50 (M14 melanoma): 49.5 µM
TGI (M14 melanoma): > 100 µM
GI50 (SK-MEL-5 melanoma): 43.9 µM
TGI (SK-MEL-5 melanoma): > 100 µM
GI50 (HS 578T breast): 33.4 µM
TGI (HS 578T breast): > 100 µM
GI50 (SNB-19 CNS): 49.5 µM
TGI (SNB-19 CNS): > 100 µM
GI50 (NCI-H460 lung): 26.6 µM
TGI (NCI-H460 lung): 96.6 µM
GI50 (NCI/ADR-RES ovarian): > 100 µM
TGI (NCI/ADR-RES ovarian): > 100 µM
GI50 (K-562 leukemia): 4.49 µM
TGI (K-562 leukemia): > 100 µM
GI50 (HL-60(TB) leukemia): > 100 µM
TGI (HL-60(TB) leukemia): > 100 µM
GI50 (COLO 205 colon): 14.2 µM
TGI (COLO 205 colon): 45.7 µM
GI50 (TK-10 renal): 83.7 µM
TGI (TK-10 renal): > 100 µM
